The results in this text go back to PubChem BioAssay (NCI).

Structures are written as SMILES.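 Grown in 96-well plates, cells were treated for 48 hours with each compound at five concentrations. Insufficient inhibition: endpoint recorded as highest concentration tested. GI50 = concentration required for 50% inhibition of growth. At the TGI there is no net growth.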

Test systems include LOX IMVI melanoma; HT29 colon; UACC-257 melanoma; CAKI-1 renal; NCI-H460 lung; NCI-H522 lung; SF-539 CNS; 786-0 renal; SK-MEL-2 melanoma; A498 renal.
Assay in all cases: inhibition of tumour cell growth, NCI panel, 48 h

In the case of `C/C1=C/C(=O)O[C@@H]2C[C@@H](CC[C@H](C)/C=C\C=C\CC1)O[C@@](O)([C@@H]1CSC(=O)N1CO)C2`, the GI50 in the assay with LOX IMVI melanoma is 0.0228 µM; with HT29 colon, 0.0562 µM; in the assay on UACC-257 melanoma, 0.42 µM; in the assay with CAKI-1 renal, 0.0203 µM; in the assay on NCI-H460 lung, 0.241 µM; in the assay with NCI-H522 lung it was 0.0371 µM. The GI50 with SF-539 CNS was 0.0274 µM; with 786-0 renal, 0.137 µM; in the assay with SK-MEL-2 melanoma, 0.0796 µM; in the assay with A498 renal it was 0.0183 µM. Also, the TGI with LOX IMVI melanoma was determined as 11.1 µM; in the assay on HT29 colon it was 20.3 µM; with UACC-257 melanoma, 16 µM; in the assay on CAKI-1 renal, 0.382 µM; in the assay on NCI-H460 lung it was 34.1 µM; in the assay with NCI-H522 lung, 2.84 µM. Besides, the TGI in the assay with SF-539 CNS is 12.4 µM; with 786-0 renal it was 12.3 µM; in the assay on SK-MEL-2 melanoma, 34.9 µM; with A498 renal it was 0.0724 µM.
Regarding `NC(=O)C1c2ccccc2C=Cc2ccccc21`, the GI50 in the assay on LOX IMVI melanoma, in the assay on HT29 colon, in the assay with UACC-257 melanoma, in the assay on CAKI-1 renal, in the assay with NCI-H460 lung and in the assay on NCI-H522 lung was more than 100 µM throughout. Moreover, the GI50 with SF-539 CNS, in the assay with 786-0 renal, in the assay on SK-MEL-2 melanoma and with A498 renal was more than 100 µM each time. The TGI in the assay on LOX IMVI melanoma, in the assay with HT29 colon, with UACC-257 melanoma, in the assay with CAKI-1 renal, in the assay with NCI-H460 lung and in the assay on NCI-H522 lung was more than 100 µM throughout. Further, the TGI in the assay with SF-539 CNS, with 786-0 renal, in the assay on SK-MEL-2 melanoma and in the assay with A498 renal was more than 100 µM throughout.
For the compound `CNC(=O)c1c(NC(=O)c2ccc(C(F)(F)F)cc2)sc2c1CCC(=O)C2`, the GI50 with LOX IMVI melanoma is 0.361 µM; with HT29 colon, 0.555 µM; in the assay on UACC-257 melanoma, 1.73 µM; in the assay with CAKI-1 renal it was 0.388 µM; in the assay with NCI-H460 lung, 0.89 µM; in the assay on NCI-H522 lung, 0.251 µM. In addition, the GI50 with SF-539 CNS was 0.386 µM; with 786-0 renal it was 0.415 µM; with SK-MEL-2 melanoma it was 1.36 µM; in the assay with A498 renal, 2.33 µM. The TGI was determined as 2.27 µM with LOX IMVI melanoma; 5.27 µM in the assay with HT29 colon; 6.22 µM in the assay on UACC-257 melanoma; 1.88 µM with CAKI-1 renal; 4.19 µM with NCI-H460 lung; 1.92 µM in the assay on NCI-H522 lung. The TGI in the assay with SF-539 CNS was 1.72 µM; in the assay with 786-0 renal, 15.1 µM; in the assay on SK-MEL-2 melanoma, 5.46 µM; with A498 renal, 7.07 µM.
On to `C=C(C)[C@@H]1CC[C@]2(C(N)=O)CC[C@]3(C)[C@H](CC[C@@H]4[C@@]5(C)CC[C@H](O)C(C)(C)[C@@H]5CC[C@]43C)[C@@H]12`, for which the GI50 with LOX IMVI melanoma is 1.77 µM; with HT29 colon it was 2.56 µM; in the assay on UACC-257 melanoma it was 13.2 µM; with CAKI-1 renal it was 1.98 µM; in the assay with NCI-H460 lung, 2.12 µM; with NCI-H522 lung, 3.13 µM. Also, the GI50 is 1.78 µM in the assay on SF-539 CNS, 2.03 µM in the assay with 786-0 renal, 7.63 µM with SK-MEL-2 melanoma and 12.2 µM with A498 renal. Also, the TGI is 3.23 µM in the assay with LOX IMVI melanoma; 7.42 µM with HT29 colon; more than 100 µM in the assay on UACC-257 melanoma; 4.98 µM in the assay on CAKI-1 renal; 4.84 µM in the assay on NCI-H460 lung; 16.3 µM in the assay with NCI-H522 lung. For the same compound, the TGI in the assay with SF-539 CNS was 3.4 µM; in the assay on 786-0 renal, 4.61 µM; in the assay with SK-MEL-2 melanoma, 36.8 µM; in the assay on A498 renal, 76.5 µM.
